pEC50, pIC50: −log10 of the molar value.
Assays:
[1] = tested on: AHR-dependent transcription of the CYP1A1 gene; experiment: CYP1A1 induction in mouse macrophages; assay type: cell-based
Method: Mouse macrophages were also used to test AHR-dependent transcription of the CYP1A1 gene in vivo. Finally, the activity of exemplary compounds of Formula (I) described herein was tested in the human […] cell line U937. The U937 cell line is derived from a patient with diffuse histiocytic lymphoma. Tables 2-4 summarize structure-activity relationship data collected for exemplary, non-limiting compounds of Formula (I) described herein.

[2] = target: T1, aryl hydrocarbon receptor (AHR) (Homo sapiens, UniProt P35869); experiment: XRE-driven luciferase reporter assay, human HepG2; conditions: for XRE luciferase Emax (fold): fold over vehicle; for XRE luciferase Emax (footnote c): Emax defined as fold increase at highest concentration tested (10 μM)
T1 sequence (P35869 11-848): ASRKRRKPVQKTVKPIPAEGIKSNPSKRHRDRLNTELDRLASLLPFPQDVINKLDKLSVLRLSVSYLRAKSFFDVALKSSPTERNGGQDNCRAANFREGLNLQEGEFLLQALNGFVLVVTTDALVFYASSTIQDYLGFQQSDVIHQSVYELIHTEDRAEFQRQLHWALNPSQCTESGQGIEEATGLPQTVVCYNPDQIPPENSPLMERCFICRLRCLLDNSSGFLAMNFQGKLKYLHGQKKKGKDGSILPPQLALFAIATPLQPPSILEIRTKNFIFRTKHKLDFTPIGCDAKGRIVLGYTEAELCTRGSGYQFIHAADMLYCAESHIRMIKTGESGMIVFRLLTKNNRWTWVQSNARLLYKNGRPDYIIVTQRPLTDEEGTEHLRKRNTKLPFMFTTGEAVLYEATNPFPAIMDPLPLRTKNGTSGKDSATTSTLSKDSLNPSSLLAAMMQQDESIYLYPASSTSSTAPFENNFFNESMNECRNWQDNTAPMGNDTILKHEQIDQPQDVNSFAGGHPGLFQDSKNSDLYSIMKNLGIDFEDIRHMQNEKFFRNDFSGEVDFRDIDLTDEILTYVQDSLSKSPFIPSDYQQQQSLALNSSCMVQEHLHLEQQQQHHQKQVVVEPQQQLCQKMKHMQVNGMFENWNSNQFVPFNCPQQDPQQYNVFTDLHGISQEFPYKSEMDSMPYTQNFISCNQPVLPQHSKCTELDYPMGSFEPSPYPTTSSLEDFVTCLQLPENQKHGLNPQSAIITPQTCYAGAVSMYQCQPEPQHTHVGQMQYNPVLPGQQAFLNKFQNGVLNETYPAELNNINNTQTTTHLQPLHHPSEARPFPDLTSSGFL
Method: The Human HepG2 cell line is a human liver cancer cell line, and provide a relevant in vitro AHR activity model. These Hep2G cells have been modified to stably express an AHR-responsive (XRE) firefly luciferase reporter gene to give Hep2G-XRE cells. The expression of luciferase should primarily reflect AHR-dependent transcription controlled by XRE.
Transfected cells were treated with AhR agonist (10^−5-10^−12) for 4.5 h in full medium. Cells were lysed and luciferase was activated using the Luciferase Assay System (Promega). Luminescence signals were measured with a FluroStar Omega microplate reader. Luminescence signals of compound treated groups were normalized to vehicle (DMSO) treated control and plotted as concentration dependent fold changes.

[3] = XRE luciferase EC50, Human HepG2, least square curve fitting, >10,000 = does not reach 50% of Emax of ITE at 10 μM (highest concentration tested)
[4] = XRE luciferase EC50 (footnote a), Human HepG2, EC50 defined as concentration induced 50% of Emax of ITE

Compound	CYP1A1 induction (% of ITE ± SEM) ([1]; 50 nM)	CYP1A1 induction (% of ITE ± SEM) ([1]; 5 μM)	XRE luciferase Emax (fold) ([2]; Human HepG2)	pEC50 [2, 3]	XRE luciferase Emax (footnote c) ([2]; Human HepG2)	pEC50 [2, 4]	pIC50 [2]
CC(C)OC(=O)c1cccc(C(=O)c2c[nH]c3ccccc23)n1 [Compound 1]	22 ± 11 % of ITE	128 ± 11 % of ITE	37	6.43	–	–	–
O=C(OC1CCCCC1)c1cccc(C(=O)c2c[nH]c3ccccc23)n1 [Compound 2]	19 ± 4 % of ITE	95 ± 7 % of ITE	55	4.92	–	–	–
O=C(O)c1cccc(C(=O)c2c[nH]c3ccccc23)n1 [Compound 3]	27 ± 17 % of ITE	97 ± 16 % of ITE	47	6.19	–	–	–
CN(C)C(=O)c1cccc(C(=O)c2c[nH]c3ccccc23)n1 [Compound 4]	–	2.5 ± 1.4 % of ITE	23	< 5.00	–	–	–
O=C(c1cccc(Cl)n1)c1c[nH]c2ccccc12 [Compound 6]	86 ± 47 % of ITE	–	–	–	(109)^c fold	7.54	–
O=C(c1ccccc1)c1c[nH]c2ccccc12 [Compound 7]	–	0.6 ± 0.2 % of ITE	–	–	–	–	–
COC(=O)c1cccc(C(=O)c2c[nH]c3ccccc23)c1 [Compound 8]	3 ± 1 % of ITE	–	–	< 5.00	(2.1)^c fold	–	–
COC(=O)c1ccc(C(=O)c2c[nH]c3ccccc23)nc1 [Compound 11, methyl 6-(1H-indole-3-carbonyl)pyridine-3-carboxylate]	2 ± 1 % of ITE	26 ± 10 % of ITE	–	< 5.00	(2.3)^c fold	–	–
CC(=O)Oc1cccc(C(=O)c2c[nH]c3ccccc23)c1 [Compound 12]	5 ± 3 % of ITE	–	–	–	–	–	–
COC(=O)c1cccc(C(=O)c2cn(C)c3ccccc23)n1 [Compound 13]	29 ± 10 % of ITE	50 ± 20 % of ITE	55	6.72	–	–	–
COC(=O)c1cccc(C(=O)c2c[nH]c3cccc(Cl)c23)n1 [Compound 14]	141 ± 83 % of ITE	–	–	< 5.00	(19)^c fold	–	–
COC(=O)c1cccc(C(=O)c2c[nH]c3ccc(Cl)cc23)n1 [Compound 15]	150 ± 36 % of ITE	89 ± 44 % of ITE	62	8.12	–	–	–
COC(=O)c1cccc(C(=O)c2c[nH]c3cc(Cl)ccc23)n1 [Compound 16]	169 ± 59 % of ITE	122 ± 48 % of ITE	–	–	(141)^c fold	8.80	–
COC(=O)c1cccc(C(=O)c2c[nH]c3c(Cl)cccc23)n1 [Compound 17]	49 ± 19 % of ITE	–	68	8.89	–	–	–
COC(=O)c1cccc(C(=O)c2c[nH]c3ncccc23)n1 [Compound 18]	11 ± 4 % of ITE	–	42	7.74	–	–	–
COC(=O)c1ccc(C(=O)c2c[nH]c3ccccc23)cc1 [Compound 25]	20 ± 16 % of ITE	–	–	–	–	–	–
COC(=O)c1ccccc1C(=O)c1c[nH]c2ccccc12 [Compound 26]	10 ± 7 % of ITE	–	–	–	–	–	–
COc1ccccc1C(=O)c1c[nH]c2ccccc12 [Compound 27]	6 ± 1 % of ITE	–	–	–	–	–	–
COc1ccc(C(=O)c2c[nH]c3ccccc23)cc1 [Compound 28]	19 ± 8 % of ITE	–	–	–	–	–	–
O=C(O)c1cccc(C(=O)c2c[nH]c3ccccc23)n1 [Compound 145, 6-(1H-indole-3-carbonyl)pyridine-2-carboxylic acid]	–	–	–	–	–	–	6.19

Reference: US12152016B2, “Aryl hydrocarbon receptor modulators and uses thereof” (Beth Israel Deaconess Medical Center, Inc., priority 2018, dated 2024)
